Tests used:
Format in all cases: in vivo, rat
male Sprague-Dawley rats [1] = assay: EEG/EMG/Tcore/LMA telemetry sleep study 1 (SB-334867 vs ZOL); conditions: 7.5 mg/kg ip
Procedure: (§1) All rodent electroencephalograph (EEG) studies were performed at SRI International. Three groups of eight male Sprague-Dawley rats (300±25 g; Charles River, Wilmington, MA) were implanted with chronic recording devices (F40-EET, Data Sciences Inc., St Paul, MN) for continuous recordings of EEG, electromyograph (EMG), core body temperature (Tcore), and LMA via telemetry as previously described. Data recording and scoring were performed as previously reported (see also Supplemental Material and Methods). The EEG and EMG data were scored in 10 sec epochs for waking (W), rapid eye movement sleep (REM), and non-REM sleep (NR). Tcore and LMA (counts per minute) were analyzed as hourly means. Data from the EEG studies are reported in hourly means such that the hourly time ZT1 refers to the hour between time points ZT0 and ZT1.
(§2) For each of the three separate studies, a repeated measures counter-balanced design was employed in which each rat received five separate dosings. […] All dosings were administered ip in a volume of 2 ml/kg. A minimum of 3 d elapsed between doses. Dosing occurred during the middle of the rats’ normal active period at the start of ZT19 and was typically completed within 10 min. Animals were continuously recorded for 6 h prior to dosing and for 18 h following dosing.

male Sprague-Dawley rats [2] = assay: EEG/EMG/Tcore/LMA telemetry sleep study 2 (EMPA vs ZOL); conditions: ZOL 10 mg/kg ip
Procedure: as §1, §2

male Sprague-Dawley rats [3] = assay: EEG/EMG/Tcore/LMA telemetry sleep study 3 (almorexant vs ZOL); conditions: ZOL 10 mg/kg ip
Procedure: as §1, §2

male Sprague-Dawley rats [4] = assay: Rodent EEG studies, all three studies together
Procedure: as §1, §2

Cc1ccc(-c2nc3ccc(C)cn3c2CC(=O)N(C)C)cc1 [ZOL, N,N,6-Trimehtyl-2-(methylphenyl)-imidazol[1,2-a]pyridine-3-acetamide]
NR bout duration (male Sprague-Dawley rats [1]; 6 h Average): 1.63 ± 0.07
REM bout duration (male Sprague-Dawley rats [1]; 6 h Average): 0.99 ± 0.09
W bout duration (male Sprague-Dawley rats [1]; 6 h Average): 4.50 ± 0.41
Number of NR bouts (male Sprague-Dawley rats [1]; 6 h Total): 62.88 ± 3.98
Number of REM bouts (male Sprague-Dawley rats [1]; 6 h Total): 13.13 ± 1.32
Number of W bouts (male Sprague-Dawley rats [1]; 6 h Total): 56.0 ± 4.43
NR bout duration (male Sprague-Dawley rats [1]; ZT19): 3.33 ± 0.78
Number of NR bouts (male Sprague-Dawley rats [1]; ZT19): 7.50 ± 1.43
Number of REM bouts (male Sprague-Dawley rats [1]; ZT19): 1.38 ± 0.46
Number of W bouts (male Sprague-Dawley rats [1]; ZT19): 6.75 ± 1.31
REM bout duration (male Sprague-Dawley rats [1]; ZT19): 0.77 ± 0.20
NR bout duration (male Sprague-Dawley rats [1]; ZT20): 2.95 ± 0.43
Number of NR bouts (male Sprague-Dawley rats [1]; ZT20): 7.75 ± 1.29
Number of REM bouts (male Sprague-Dawley rats [1]; ZT20): 0.88 ± 0.48
Number of W bouts (male Sprague-Dawley rats [1]; ZT20): 6.00 ± 0.82
REM bout duration (male Sprague-Dawley rats [1]; ZT20): 0.76 ± 0.19
NR bout duration (male Sprague-Dawley rats [1]; ZT21): 1.87 ± 0.20
Number of NR bouts (male Sprague-Dawley rats [1]; ZT21): 17.25 ± 2.00
Number of REM bouts (male Sprague-Dawley rats [1]; ZT21): 4.50 ± 0.78
Number of W bouts (male Sprague-Dawley rats [1]; ZT21): 12.00 ± 1.95
REM bout duration (male Sprague-Dawley rats [1]; ZT21): 1.28 ± 0.11
W bout duration (male Sprague-Dawley rats [1]; ZT21): 2.44 ± 0.75
NR bout duration (male Sprague-Dawley rats [1]; ZT22): 1.01 ± 0.10
Number of NR bouts (male Sprague-Dawley rats [1]; ZT22): 14.88 ± 1.88
Number of REM bouts (male Sprague-Dawley rats [1]; ZT22): 1.25 ± 0.75
Number of W bouts (male Sprague-Dawley rats [1]; ZT22): 14.75 ± 2.49
W bout duration (male Sprague-Dawley rats [1]; ZT22): 3.30 ± 0.66
NR bout duration (male Sprague-Dawley rats [1]; ZT23): 0.82 ± 0.10
Number of NR bouts (male Sprague-Dawley rats [1]; ZT23): 7.25 ± 1.06
Number of REM bouts (male Sprague-Dawley rats [1]; ZT23): 1.00 ± 0.38
Number of W bouts (male Sprague-Dawley rats [1]; ZT23): 7.75 ± 1.19
REM bout duration (male Sprague-Dawley rats [1]; ZT23): 0.72 ± 0.26
NR bout duration (male Sprague-Dawley rats [1]; ZT24): 0.84 ± 0.09
Number of NR bouts (male Sprague-Dawley rats [1]; ZT24): 8.25 ± 1.75
Number of W bouts (male Sprague-Dawley rats [1]; ZT24): 7.88 ± 1.63
REM bout duration (male Sprague-Dawley rats [1]; ZT24): 0.86 ± 0.24
W bout duration (male Sprague-Dawley rats [1]; ZT24): 12.51 ± 0.82
NR bout duration (male Sprague-Dawley rats [2]; 6 h Average): 1.80 ± 0.13
REM bout duration (male Sprague-Dawley rats [2]; 6 h Average): 0.88 ± 0.07
W bout duration (male Sprague-Dawley rats [2]; 6 h Average): 3.94 ± 0.29
Number of NR bouts (male Sprague-Dawley rats [2]; 6 h Total): 73.70 ± 4.34
Number of REM bouts (male Sprague-Dawley rats [2]; 6 h Total): 12.10 ± 1.30
Number of W bouts (male Sprague-Dawley rats [2]; 6 h Total): 55.80 ± 3.84
NR bout duration (male Sprague-Dawley rats [2]; ZT19): 3.89± 0.68
Number of NR bouts (male Sprague-Dawley rats [2]; ZT19): 8.90 ± 1.06
Number of REM bouts (male Sprague-Dawley rats [2]; ZT19): 0.60± 0.31
Number of W bouts (male Sprague-Dawley rats [2]; ZT19): 8.10± 0.97
REM bout duration (male Sprague-Dawley rats [2]; ZT19): 0.65± 0.16
W bout duration (male Sprague-Dawley rats [2]; ZT19): 3.64± 0.51
NR bout duration (male Sprague-Dawley rats [2]; ZT20): 3.13± 0.44
Number of NR bouts (male Sprague-Dawley rats [2]; ZT20): 11.60± 1.38
Number of REM bouts (male Sprague-Dawley rats [2]; ZT20): 1.10± 0.48
Number of W bouts (male Sprague-Dawley rats [2]; ZT20): 8.60± 1.59
REM bout duration (male Sprague-Dawley rats [2]; ZT20): 0.96± 0.27
W bout duration (male Sprague-Dawley rats [2]; ZT20): 3.23± .037
NR bout duration (male Sprague-Dawley rats [2]; ZT21): 1.81± 0.27
Number of NR bouts (male Sprague-Dawley rats [2]; ZT21): 16.40± 2.10
Number of REM bouts (male Sprague-Dawley rats [2]; ZT21): 3.30± 0.75
Number of W bouts (male Sprague-Dawley rats [2]; ZT21): 11.00± 1.74
REM bout duration (male Sprague-Dawley rats [2]; ZT21): 0.66± 0.09
W bout duration (male Sprague-Dawley rats [2]; ZT21): 3.10± .059
NR bout duration (male Sprague-Dawley rats [2]; ZT22): 1.34± 0.17
Number of NR bouts (male Sprague-Dawley rats [2]; ZT22): 16.10± 1.11
Number of REM bouts (male Sprague-Dawley rats [2]; ZT22): 4.80± 0.55
Number of W bouts (male Sprague-Dawley rats [2]; ZT22): 12.10± 0.85
REM bout duration (male Sprague-Dawley rats [2]; ZT22): 0.97± 0.10
W bout duration (male Sprague-Dawley rats [2]; ZT22): 2.59± 0.31
NR bout duration (male Sprague-Dawley rats [2]; ZT23): 0.98± 0.11
Number of NR bouts (male Sprague-Dawley rats [2]; ZT23): 13.00± 1.64
Number of REM bouts (male Sprague-Dawley rats [2]; ZT23): 1.90± 0.35
Number of W bouts (male Sprague-Dawley rats [2]; ZT23): 8.90± 1.15
W bout duration (male Sprague-Dawley rats [2]; ZT23): 5.59 ±0.93
NR bout duration (male Sprague-Dawley rats [2]; ZT24): 0.92± 0.20
Number of NR bouts (male Sprague-Dawley rats [2]; ZT24): 7.50± 1.58
Number of REM bouts (male Sprague-Dawley rats [2]; ZT24): 0.40± 0.22
Number of W bouts (male Sprague-Dawley rats [2]; ZT24): 6.20± 1.31
REM bout duration (male Sprague-Dawley rats [2]; ZT24): 0.58± 0.14
W bout duration (male Sprague-Dawley rats [2]; ZT24): 12.90± 3.56
NR bout duration (male Sprague-Dawley rats [3]; 6 h Average): 1.99 ± 0.16
REM bout duration (male Sprague-Dawley rats [3]; 6 h Average): 0.97 ± 0.12
W bout duration (male Sprague-Dawley rats [3]; 6 h Average): 2.88 ± 0.16
Number of NR bouts (male Sprague-Dawley rats [3]; 6 h Total): 77.63 ± 3.56
Number of REM bouts (male Sprague-Dawley rats [3]; 6 h Total): 7.38 ± 1.68
Number of W bouts (male Sprague-Dawley rats [3]; 6 h Total): 68.00 ± 4.23
NR bout duration (male Sprague-Dawley rats [3]; ZT19): 3.53 ± 0.71
Number of REM bouts (male Sprague-Dawley rats [3]; ZT19): 0.50 ± 0.27
Number of W bouts (male Sprague-Dawley rats [3]; ZT19): 8.75 ± 1.56
REM bout duration (male Sprague-Dawley rats [3]; ZT19): 0.33 ± 0.10
W bout duration (male Sprague-Dawley rats [3]; ZT19): 4.15 ± 0.82
NR bout duration (male Sprague-Dawley rats [3]; ZT20): 2.90 ± 0.19
Number of NR bouts (male Sprague-Dawley rats [3]; ZT20): 11.63 ± 1.36
Number of REM bouts (male Sprague-Dawley rats [3]; ZT20): 0.50 ± 0.38
Number of W bouts (male Sprague-Dawley rats [3]; ZT20): 10.00 ± 0.71
REM bout duration (male Sprague-Dawley rats [3]; ZT20): 2.25 ± 0.25
W bout duration (male Sprague-Dawley rats [3]; ZT20): 2.31 ± 0.33
NR bout duration (male Sprague-Dawley rats [3]; ZT21): 2.84 ± 0.34
Number of NR bouts (male Sprague-Dawley rats [3]; ZT21): 11.88 ± 1.60
Number of W bouts (male Sprague-Dawley rats [3]; ZT21): 10.25 ± 1.56
W bout duration (male Sprague-Dawley rats [3]; ZT21): 2.69 ± 0.42
NR bout duration (male Sprague-Dawley rats [3]; ZT22): 2.27 ± 0.44
Number of NR bouts (male Sprague-Dawley rats [3]; ZT22): 13.50 ± 1.88
Number of REM bouts (male Sprague-Dawley rats [3]; ZT22): 2.50 ± 0.82
Number of W bouts (male Sprague-Dawley rats [3]; ZT22): 10.50 ± 1.21
W bout duration (male Sprague-Dawley rats [3]; ZT22): 3.13 ± 0.59
NR bout duration (male Sprague-Dawley rats [3]; ZT23): 1.29 ± 0.20
Number of NR bouts (male Sprague-Dawley rats [3]; ZT23): 17.25 ± 3.27
Number of REM bouts (male Sprague-Dawley rats [3]; ZT23): 1.75 ± 0.41
Number of W bouts (male Sprague-Dawley rats [3]; ZT23): 15.13 ± 3.17
W bout duration (male Sprague-Dawley rats [3]; ZT23): 3.85 ± 1.44
NR bout duration (male Sprague-Dawley rats [3]; ZT24): 1.03 ± 0.12
Number of NR bouts (male Sprague-Dawley rats [3]; ZT24): 13.13 ± 2.37
Number of REM bouts (male Sprague-Dawley rats [3]; ZT24): 1.00 ± 0.42
Number of W bouts (male Sprague-Dawley rats [3]; ZT24): 12.63 ± 2.40
REM bout duration (male Sprague-Dawley rats [3]; ZT24): 0.66 ± 0.29
W bout duration (male Sprague-Dawley rats [3]; ZT24): 4.15 ± 0.83
NR latency (in words) (male Sprague-Dawley rats [4]; ZOL 7.5 or 10 mg/kg ip, all three experiments): decrease in NR latency
cumulative NR (in words) (male Sprague-Dawley rats [4]; all three experiments): increased cumulative NR
cumulative REM (in words) (male Sprague-Dawley rats [4]; all three experiments): decreased cumulative REM
Tcore (in words) (male Sprague-Dawley rats [4]; all three studies, followed by rebound increase in the light period): largest declines in Tcore
EEG delta power during NR (in words) (male Sprague-Dawley rats [4]; compared to vehicle control): significant effects on EEG delta power during NR
